{
  "source": "patent US8501977B2",
  "about": "“Platinum complex and pharmaceutical composition containing the same” (Unitech Co., Ltd., priority 2008, dated 2013)",
  "key": {"[1]": {"system": "A549 (human lung cancer cell)", "assay": "MTS cell proliferation test, A549 (Embodiment 8)", "format": "cell-based", "protocol": "(§1) Respectively, the S medicine test solution was prepared by dissolving the ((S,S,S) cis,cis-spiro[4,4]nonane-1,6-diamine)oxalatoplatinum(II) complex (compound 2; hereinafter, it is described as S medicine) into the dimethylsulfoxide (DMSO) with the concentration of 10 mg/ml and the R medicine test solution was prepared by dissolving the ((R,R,R)cis,cis-spiro[4,4]nonane-1,6-diamine) oxalatoplatinum(II) complex (compound 3; hereinafter, it is described as R medicine) into the dimethylsulfoxide (DMSO) with the concentration of 10 mg/ml.\n(§2) The test was performed by using A549 (human lung cancer cell), LU65A (human lung cancer cell), RERF-LC-MA (human lung cancer cell), LU99 (human lung cancer cell), H460 (human lung cancer cell), HCT116 (human colon cancer cell), HT-29 (human colon cancer cell), MKN-45 (human gastric cancer cell), MKN-1 (human gastric cancer cell), U937 (human lymphoma cell), KP-1N (human pancreas cancer cell) and B2452 (human mesotheliama cell) as the cancer cell.\n(§3) These cells were suspended in the each culture medium that the serum of 10% was added, and were dispensed in 96-well plate. And then, these were cultured in 5% CO2 at 37 degrees centigrade during a night. Next day, the S medicine test solution and the R medicine test solution were prepared in the culture medium to the various concentrations (5, 10, 20 μg/ml), and were dispensed into the plates that the cells were set preliminarily. And further, these were cultured in 5% CO2 at 37 degrees centigrade for three days.\n(§4) The cell proliferation after the medicine addition was measured on the 3rd day from the 1st day after the medicine addition by the MTS method (kit for cell proliferation test manufactured by Promega Company).\n(§5) The inhibition rate (%) of the cell proliferation was obtained from the measured MTS value by the following formula. Inhibition rate(%)=(1-MTS value of medicine addition group/MTS value of medicine non-addition group)×100\n(§6) Because the value which was obtained by the above-mentioned formula represents the inhibition rate of the cell proliferation, the higher the numerical value is, the higher the medicine effect is. It is desired that the one whose value is 50% or more has the medicine effect."}, "[2]": {"system": "LU65A (human lung cancer cell)", "assay": "MTS cell proliferation test, LU65A (Embodiment 8)", "format": "cell-based", "protocol": "as §1, §2, §3, §4, §5, §6"}, "[3]": {"system": "RERF-LC-MA (human lung cancer cell)", "assay": "MTS cell proliferation test, RERF-LC-MA (Embodiment 8)", "format": "cell-based", "protocol": "as §1, §2, §3, §4, §5, §6"}, "[4]": {"system": "LU99 (human lung cancer cell)", "assay": "MTS cell proliferation test, LU99 (Embodiment 8)", "format": "cell-based", "protocol": "as §1, §2, §3, §4, §5, §6"}, "[5]": {"system": "H460 (human lung cancer cell)", "assay": "MTS cell proliferation test, H460 (Embodiment 8)", "format": "cell-based", "protocol": "as §1, §2, §3, §4, §5, §6"}, "[6]": {"system": "HCT116 (human colon cancer cell)", "assay": "MTS cell proliferation test, HCT116 (Embodiment 8)", "format": "cell-based", "protocol": "as §1, §2, §3, §4, §5, §6"}, "[7]": {"system": "HT-29 (human colon cancer cell)", "assay": "MTS cell proliferation test, HT-29 (Embodiment 8)", "format": "cell-based", "protocol": "as §1, §2, §3, §4, §5, §6"}, "[8]": {"system": "MKN-45 (human gastric cancer cell)", "assay": "MTS cell proliferation test, MKN-45 (Embodiment 8)", "format": "cell-based", "protocol": "as §1, §2, §3, §4, §5, §6"}, "[9]": {"system": "MKN-1 (human gastric cancer cell)", "assay": "MTS cell proliferation test, MKN-1 (Embodiment 8)", "format": "cell-based", "protocol": "as §1, §2, §3, §4, §5, §6"}, "[10]": {"system": "U937 (human lymphoma cell)", "assay": "MTS cell proliferation test, U937 (Embodiment 8)", "format": "cell-based", "protocol": "as §1, §2, §3, §4, §5, §6"}, "[11]": {"system": "KP-1N (human pancreas cancer cell)", "assay": "MTS cell proliferation test, KP-1N (Embodiment 8)", "format": "cell-based", "protocol": "as §1, §2, §3, §4, §5, §6"}, "[12]": {"system": "H2452 cell (human mesothelicana cell)", "assay": "MTS cell proliferation test, H2452 (Embodiment 8)", "format": "cell-based", "protocol": "as §1, §2, §3, §4, §5, §6"}, "tumor cells": {"system": "tumor cells", "assay": "MTS cell proliferation test, all cancer cells of Embodiment 8", "format": "cell-based, human", "conditions": "summary of Table 2 in words", "protocol": "as §1\nas §2, with “cell. […]” for “cell.”\nas §4\nThe inhibition rate (%) of the cell proliferation was obtained from the measured MTS value by the following formula. […]"}},
  "data": [
    {"smiles": "NC1CCCC12CCCC2N.O=C1[O][Pt][O]C1=O", "note": "[S medicine, ((S,S,S) cis,cis-spiro[4,4]nonane-1,6-diamine)oxalatoplatinum(II) complex]", "values": [
      {"measurement": "Inhibition rate of cell proliferation after 3 days from medicine addition (%)", "setting": "[1]; A549, 5 μg/ml", "value": "X (X: 0~25%)"},
      {"measurement": "Inhibition rate of cell proliferation after 3 days from medicine addition (%)", "setting": "[1]; A549, 10 μg/ml", "value": "◯ (◯: 51~75%)"},
      {"measurement": "Inhibition rate of cell proliferation after 3 days from medicine addition (%)", "setting": "[1]; A549, 20 μg/ml", "value": "⊚ (⊚: 76~100%)"},
      {"measurement": "Inhibition rate of cell proliferation after 3 days from medicine addition (%)", "setting": "[2]; 5 μg/ml", "value": "◯ (◯: 51~75%)"},
      {"measurement": "Inhibition rate of cell proliferation after 3 days from medicine addition (%)", "setting": "[2]; 10 μg/ml", "value": "⊚ (⊚: 76~100%)"},
      {"measurement": "Inhibition rate of cell proliferation after 3 days from medicine addition (%)", "setting": "[2]; 20 μg/ml", "value": "⊚ (⊚: 76~100%)"},
      {"measurement": "Inhibition rate of cell proliferation after 3 days from medicine addition (%)", "setting": "[3]; 5 μg/ml", "value": "X (X: 0~25%)"},
      {"measurement": "Inhibition rate of cell proliferation after 3 days from medicine addition (%)", "setting": "[3]; 10 μg/ml", "value": "Δ (Δ: 26~50%)"},
      {"measurement": "Inhibition rate of cell proliferation after 3 days from medicine addition (%)", "setting": "[3]; 20 μg/ml", "value": "◯ (◯: 51~75%)"},
      {"measurement": "Inhibition rate of cell proliferation after 3 days from medicine addition (%)", "setting": "[4]; LU99, 5 μg/ml", "value": "◯ (◯: 51~75%)"},
      {"measurement": "Inhibition rate of cell proliferation after 3 days from medicine addition (%)", "setting": "[4]; LU99, 10 μg/ml", "value": "⊚ (⊚: 76~100%)"},
      {"measurement": "Inhibition rate of cell proliferation after 3 days from medicine addition (%)", "setting": "[4]; LU99, 20 μg/ml", "value": "⊚ (⊚: 76~100%)"},
      {"measurement": "Inhibition rate of cell proliferation after 3 days from medicine addition (%)", "setting": "[5]; H460, 5 μg/ml", "value": "Δ (Δ: 26~50%)"},
      {"measurement": "Inhibition rate of cell proliferation after 3 days from medicine addition (%)", "setting": "[5]; H460, 10 μg/ml", "value": "◯ (◯: 51~75%)"},
      {"measurement": "Inhibition rate of cell proliferation after 3 days from medicine addition (%)", "setting": "[5]; H460, 20 μg/ml", "value": "⊚ (⊚: 76~100%)"},
      {"measurement": "Inhibition rate of cell proliferation after 3 days from medicine addition (%)", "setting": "[6]; HCT116, 5 μg/ml", "value": "◯ (◯: 51~75%)"},
      {"measurement": "Inhibition rate of cell proliferation after 3 days from medicine addition (%)", "setting": "[6]; HCT116, 10 μg/ml", "value": "◯ (◯: 51~75%)"},
      {"measurement": "Inhibition rate of cell proliferation after 3 days from medicine addition (%)", "setting": "[6]; HCT116, 20 μg/ml", "value": "◯ (◯: 51~75%)"},
      {"measurement": "Inhibition rate of cell proliferation after 3 days from medicine addition (%)", "setting": "[7]; HT-29, 5 μg/ml", "value": "Δ (Δ: 26~50%)"},
      {"measurement": "Inhibition rate of cell proliferation after 3 days from medicine addition (%)", "setting": "[7]; HT-29, 10 μg/ml", "value": "Δ (Δ: 26~50%)"},
      {"measurement": "Inhibition rate of cell proliferation after 3 days from medicine addition (%)", "setting": "[7]; HT-29, 20 μg/ml", "value": "◯ (◯: 51~75%)"},
      {"measurement": "Inhibition rate of cell proliferation after 3 days from medicine addition (%)", "setting": "[8]; MKN-45, 5 μg/ml", "value": "⊚ (⊚: 76~100%)"},
      {"measurement": "Inhibition rate of cell proliferation after 3 days from medicine addition (%)", "setting": "[8]; MKN-45, 10 μg/ml", "value": "⊚ (⊚: 76~100%)"},
      {"measurement": "Inhibition rate of cell proliferation after 3 days from medicine addition (%)", "setting": "[8]; MKN-45, 20 μg/ml", "value": "⊚ (⊚: 76~100%)"},
      {"measurement": "Inhibition rate of cell proliferation after 3 days from medicine addition (%)", "setting": "[9]; MKN-1, 5 μg/ml", "value": "◯ (◯: 51~75%)"},
      {"measurement": "Inhibition rate of cell proliferation after 3 days from medicine addition (%)", "setting": "[9]; MKN-1, 10 μg/ml", "value": "⊚ (⊚: 76~100%)"},
      {"measurement": "Inhibition rate of cell proliferation after 3 days from medicine addition (%)", "setting": "[9]; MKN-1, 20 μg/ml", "value": "⊚ (⊚: 76~100%)"},
      {"measurement": "Inhibition rate of cell proliferation after 3 days from medicine addition (%)", "setting": "[10]; U937, 5 μg/ml", "value": "⊚ (⊚: 76~100%)"},
      {"measurement": "Inhibition rate of cell proliferation after 3 days from medicine addition (%)", "setting": "[10]; U937, 10 μg/ml", "value": "⊚ (⊚: 76~100%)"},
      {"measurement": "Inhibition rate of cell proliferation after 3 days from medicine addition (%)", "setting": "[10]; U937, 20 μg/ml", "value": "⊚ (⊚: 76~100%)"},
      {"measurement": "Inhibition rate of cell proliferation after 3 days from medicine addition (%)", "setting": "[11]; 5 μg/ml", "value": "Δ (Δ: 26~50%)"},
      {"measurement": "Inhibition rate of cell proliferation after 3 days from medicine addition (%)", "setting": "[11]; 10 μg/ml", "value": "◯ (◯: 51~75%)"},
      {"measurement": "Inhibition rate of cell proliferation after 3 days from medicine addition (%)", "setting": "[11]; 20 μg/ml", "value": "⊚ (⊚: 76~100%)"},
      {"measurement": "Inhibition rate of cell proliferation after 3 days from medicine addition (%)", "setting": "[12]; H2452, 5 μg/ml", "value": "X (X: 0~25%)"},
      {"measurement": "Inhibition rate of cell proliferation after 3 days from medicine addition (%)", "setting": "[12]; H2452, 10 μg/ml", "value": "Δ (Δ: 26~50%)"},
      {"measurement": "Inhibition rate of cell proliferation after 3 days from medicine addition (%)", "setting": "[12]; H2452, 20 μg/ml", "value": "Δ (Δ: 26~50%)"},
      {"measurement": "medicine effect for the many tumor cells", "setting": "tumor cells", "value": "high medicine effect compared with the oxaliplatin"}
    ]}
  ]
}
